Structures can show the parent of a compound that is named as a salt.
Tests used:
[1] = in vivo and in vitro; cited from earlier work
[2] = cited from earlier work; for Log P of Second Active Agent: co-formulation table; for Log P: table of second active agents
human neutrophils [3] = experiment: Sytox Orange extracellular DNA release (NET) assay; type: cell-based
Text: (§1) Neutrophil isolation: Neutrophils were isolated from the peripheral blood of healthy donors, under a protocol approved by an institutional ethics committee. All subjects gave written informed consent in accordance with the Declaration of Helsinki. Briefly, whole blood was collected using an anticoagulant (sodium citrate), and isolated as previously described using a Percoll gradient separation of neutrophils from other leukocytes (Modulation of multiple neutrophil functions by preparative methods or trace concentrations of bacterial lipopolysaccharide. Haslett C, et al. Am J Pathol. 1985 April; 119(1): 101-10). Neutrophils were suspended in RPMI, 2% heat-inactivated human plasma, and 10 mM HEPES, pH7.5 (complete RPMI) to a neutrophil specific concentration of 2.2×10^6 neutrophils/ml.
First Neutrophil Extracellular Trap (NET) indicating assay: A Sytox Orange extracellular DNA release assay was utilized. For the experiments using DIM from self-emulsifying SMEDDS BR-9001 (i.e., Example 1), purified human neutrophils (2×10^5 per sample) in complete RPMI were allowed to settle in 24-well plates in the presence of DIM from self-emulsifying DIM formulation SMEDDS—BR-9001 (12% DIM) providing experimental DIM concentrations of 1, 3, 10, and 30 μM. Control wells received SMEDDS excipient vehicle mixture alone (diluted to provide excipient mixture concentrations equivalent to excipients present in the 3 and 30 μM DIM experimental wells). Neutrophils (2×10^5 per well) were plated in a black-walled 96-well plate and allowed to settle in the presence of DIM from BR-9001 or excipient vehicle control for 30 min. After 30 minutes neutrophils in wells were stimulated with recombinant fusion protein (F Protein (1 μg/ml, Sino Biologicals) or phenolextracted lipopolysaccharide (LPS; 10 μg/ml; List Biologicals). and 5 μM Sytox Orange (Thermo Fisher) was added and gently mixed. The plate was placed in a prewarmed (37° C.) fluorescence plate reader (BioTek FLX-800) and fluorescence read at excitation/emission of 540/600 every 10 minutes over 4 hours. Following this, 1% saponin was added to lyse neutrophils to provide 100% DNA release for experiments presented in FIGS. 1A and 1B. This allowed results to be presented as proportion of total DNA in these experiments. Otherwise results are reported as relative fluorescent units (FIGS. 3A and 3B). The kinetics or 4-hour results were reported as described (Sec FIGS. 1A and 1B and FIG. 3A).
A second set of experiments were performed using crystalline DIM solubilized in DMSO prior to addition to culture wells. […] The plate was placed in a prewarmed (37° C.) fluorescence plate reader and fluorescence read as above every 10 minutes over 4 hours. […]

human neutrophils [4] = experiment: Fluorescent imaging of extracellular DNA (Sytox Orange microscopy); type: cell-based
Text: as §1
Fluorescent imaging of extracellular DNA for photo-micrograph data: Neutrophils (5×10^5 per well) were spotted on a glass microscope chamber slide (Ibidi) and cells were stimulated for 4 hours as indicated above with F Protein or LPS, at 37° C. in a humidified chamber, and stained with 0.2 μM Sytox Orange for the final 10 minutes. The slides were fixed in 2% formaldehyde (Sigma) for 10 min at room temperature and imaged.

[5] = system: carotid artery thromboses; experiment: FeCl3 carotid artery thrombosis in mice, H&E fibrin content; type: in vivo, mice (C57BL6/J); conditions: DIM treated animals (oral and IV groups)
Procedure: Animals: All mice were of C57BL6/J background. Specific pathogen-free mice were obtained from Envigo, USA. All mice used for experiments were between 11 and 14 weeks old. Each experimental group was weight and sex-matched so that experiments were carried out on male and female mice with similar weight and in equal sex distribution between groups. All procedures were performed on anaesthetized animals using a uniform technique of inhaled Isoflurane combined with supplemental parenteral agents. Animals were sacrificed under deep anesthesia. All animal experiments were carried out according to the guidelines from the Guide for Care and Use of Laboratory Animals and The Public Health Service (PHS) Policy on Humane Care and Use of Laboratory Animals. All experimental procedures performed on animals met the requirements of the Guide for the protection of animals used for scientific purposes. Induction of arterial thrombosis after Ferric Chloride exposure: For thrombus induction in the distal carotid artery in vivo, local application of FeCl3 was used following an established method (Wang et al, 2005, supra). In brief, mice were anesthetized using 2-3% inhaled isoflurane, shifting to lower dose maintenance isoflurane and supplemented with a fixed combination of intra-peritoneal buprenorphine, midazolam and dexmedetomidine. […]

[6] = following oral administration; cited from earlier work

Compound: OCc1c[nH]c2ccccc12 [indole-3-carbinol, 1H-indol-3-ylmethanol]
- conversion products [1]: converts to DIM and LTR

Compound: CCCCCCCCc1ccc(CCC(N)(CO)CO)cc1 [Fingolimod]
- Log P of Second Active Agent [2]: 5.25
- Log P [2]: Log P - 5.25

Compound: O=c1c2ccccc2[se]n1-c1ccccc1 [Ebselen]
- Log P [2]: Log P - 2.65

Compound: Anakinra: recombinant and slightly modified version of the human interleukin 1 receptor antagonist protein
- Log P [2]: Log P - 2.69

Compound: CCCSc1nc(N[C@@H]2C[C@H]2c2ccc(F)c(F)c2)c2nnn([C@@H]3C[C@H](OCCO)[C@@H](O)[C@H]3O)c2n1 [Ticagrelor]
- Log P of Second Active Agent [2]: 1.90
- Log P [2]: Log P - 1.90

Compound: c1ccc2c(Cc3c[nH]c4ccccc34)c[nH]c2c1 [DIM, 3,3′-diindolylmethane]
- delay in DNA release versus absence of DIM (human neutrophils [3]; F protein and LPS stimulated neutrophils): about 1 hours
- IC50 (human neutrophils [3]; Homo sapiens, Neutrophil, free DIM (crystalline, in DMSO), read-out: estimated IC50, inhibition of DNA release): 3 to 30 µM
- effect on DNA release (Sytox Orange) (human neutrophils [3]; free DIM in DMSO 1, 3, 10, 30 μM, F Protein 1 μg/ml): dose-dependent inhibitory effect
- spontaneous DNA release (human neutrophils [3]; non-stimulated neutrophils): did not inhibit
- extracellular DNA positive cells (microscopy) (human neutrophils [4]; 3 μM to 30 μM DIM): dose response
- visualization of extracellular DNA (microscopy) (human neutrophils [4]; API (free) DIM, F Protein and LPS, 4 h): inhibited visualization of extracellular DNA
- thrombus composition (H&E) versus Vehicle Control [5]: less compact thrombi, primarily composed of red cells (RBCs), with a minimum of fibrin and lower presence of leukocytes
- tissue distribution [6]: concentrates in brain tissue

Compound: COC(=O)/C=C/C(=O)OC [Dimethyl Fumarate, Dimethyl fumarate]
- Log P [2]: Log P - 0.62

— US12527766B2, “Methods of treating acute coronary syndrome using 3,3′-diindolylmethane” (Boulder BioScience LLC, priority 2020, dated 2026)
